This passage reports IC50 results from patent US11918592B2, “Inhibitors of cyclin dependent kinase 7 (CDK7)” (Syros Pharmaceuticals, Inc., priority 2018, dated 2024).

Like-named read-outs stand apart in the source and are kept apart here.

The subject of test [1] is COV318 cells. Briefly: Inhibition of cell proliferation, CyQUANT Direct, COV318. The class given is cell-based. The following applies: Homo sapiens; COV318 ovarian cancer cells, 72-hour; read-out: COV 318 proliferation calculated IC50. As to the method: (§1) HCC70 and MB453 cells are cell lines derived from human triple negative breast cancer. COV318 and COV504 cells are cell lines derived from human ovarian cancer. Representative compounds of the invention were tested at different concentrations (from 4 μM to 126.4 pM; 0.5 log serial dilutions) for their ability to inhibit the proliferation of each of these cell lines. Known CDK inhibitors dinaciclib or N-((1S,3R)-3-((5-chloro-4-(1H-indol-3-yl) pyrimidin-2-yl)amino)cyclohexyl)-5-((E)-4-(dimethylamino)but-2-enamido)picolinamide and triptolide were used as positive controls. Cells were seeded at approximately 2,000 cells/well and grown in ATCC-formulated RPMI-1640 Medium (ATCC 30-2001)+10% FBS. The cells were cultured at 37° C. in a humidified chamber in the presence of 5% CO2. Proliferation assays were conducted over a 72-hour time period. CyQUANT® Direct Cell Proliferation Assay (Life Technologies, Chicago, IL USA) was used to assess the anti-proliferative effects of the compounds following manufacturer's directions and utilizing the reagents supplied with the CyQUANT® Direct Cell kit.

Test [2] concerns MB453 cells. Briefly: Inhibition of cell proliferation, CyQUANT Direct, MB453. The format is cell-based, human. The following applies: MB453 triple negative breast cancer cells, 72-hour, read-out: MB 453 proliferation calculated IC50. The protocol: as §1
Test [3] addresses CDK12 (aa686-1082)/Cyclin K complex (Homo sapiens, UniProt Q9NYV4). Briefly: CDK12 kinase inhibition assay (Caliper/LabChip EZ Reader).
The subject of test [4] is COV504 cells. Briefly: Inhibition of cell proliferation, CyQUANT Direct, COV504. The format is cell-based. The following applies: Homo sapiens; COV504 ovarian cancer cells, 72-hour; read-out: COV 504 proliferation calculated IC50. As to the method:
as §1

Test [5] addresses CDK9/Cyclin T1 complex (Homo sapiens, UniProt P50750). Briefly: CDK9 kinase inhibition assay (Caliper/LabChip EZ Reader).
Experimental: (§2) Compounds of the invention were assayed for inhibition of CDK7, CDK9, CDK12, and CDK2 activity at Biortus Biosciences (Jiangyin, Jiangsu Province, P.R. of China) using kinase assays for each CDK developed with a Caliper/LabChip EZ Reader (Perkin Elmer, Waltham, MA).
(§3) Furthermore, the CDK9 inhibition assay used CDK9/Cyclin T1 complex (8 nM) and “5-FAM-CDK9tide” peptide substrate (2 μM, synthesized fluorophore-labeled peptide with the following sequence: 5-FAM-GSRTPMY-NH2 (SEQ ID NO:2) where 5-FAM is defined above and NH2 signifies a C-terminal amide) with 10 mM MgCl2 in the buffer composition listed above. The CDK12 inhibition assay used CDK12 (aa686-1082)/Cyclin K complex (50 nM) and “5-FAM-CDK9tide” (2 μM) as defined above, with 2 mM MgCl2 in the buffer composition above. Additionally, the CDK2 inhibition assay used CDK2/Cyclin E1 complex (0.5 nM) and “5-FAM-CDK7tide” (2 μM) as defined above, with 2 mM MgCl2 in the buffer composition listed above.
(§4) The incubation period at 27° C. for each CDK inhibition assay was chosen such that the fraction of phosphorylated peptide product produced in each assay, relative to the total peptide concentration, was approximately 20% (±5%) for the uninhibited kinase (35 min. for CDK7, 35 min. for CDK2, 3 hr. for CDK12, 15 min. for CDK9).
The target in test [6] is CDK2/Cyclin E1 complex (Homo sapiens, UniProt P24941). As to the kind of experiment: CDK2 kinase inhibition assay (Caliper/LabChip EZ Reader).
Experimental: as §2, §3, §4
Test [7] has as its target CDK7/Cyclin H/MAT1 complex (Homo sapiens, UniProt P50613). As to the kind of experiment: CDK7 kinase inhibition assay (Caliper/LabChip EZ Reader).
In test [8] the test system is HCC70 cells. As to the kind of experiment: Inhibition of cell proliferation, CyQUANT Direct, HCC70. The format is cell-based, human. The following applies: HCC70 triple negative breast cancer cells, 72-hour, read-out: HCC 70 proliferation calculated IC50. As to the method: as §1

CDK7/Cyclin H/MAT1 complex, sequence (P50613 whole entry): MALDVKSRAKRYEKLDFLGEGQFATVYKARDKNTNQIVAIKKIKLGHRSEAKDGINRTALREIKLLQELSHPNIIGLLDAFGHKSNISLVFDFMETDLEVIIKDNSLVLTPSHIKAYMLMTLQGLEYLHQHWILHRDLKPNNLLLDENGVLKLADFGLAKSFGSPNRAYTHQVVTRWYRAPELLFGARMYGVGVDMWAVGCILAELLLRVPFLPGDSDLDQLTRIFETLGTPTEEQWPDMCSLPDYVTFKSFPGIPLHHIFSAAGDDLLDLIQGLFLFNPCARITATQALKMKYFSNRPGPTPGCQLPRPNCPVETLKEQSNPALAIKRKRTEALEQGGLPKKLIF
CDK7/Cyclin H/MAT1 complex, sequence (P51946 whole entry partner): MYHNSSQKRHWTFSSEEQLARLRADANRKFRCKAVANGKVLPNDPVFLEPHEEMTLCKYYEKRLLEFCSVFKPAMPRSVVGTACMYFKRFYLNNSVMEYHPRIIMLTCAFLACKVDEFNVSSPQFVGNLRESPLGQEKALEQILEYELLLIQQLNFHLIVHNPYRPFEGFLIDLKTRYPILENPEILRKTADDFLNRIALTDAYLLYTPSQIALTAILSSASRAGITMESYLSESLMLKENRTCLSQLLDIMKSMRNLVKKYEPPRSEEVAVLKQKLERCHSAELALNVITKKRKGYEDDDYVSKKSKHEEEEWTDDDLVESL
CDK7/Cyclin H/MAT1 complex, sequence (P51948 whole entry partner): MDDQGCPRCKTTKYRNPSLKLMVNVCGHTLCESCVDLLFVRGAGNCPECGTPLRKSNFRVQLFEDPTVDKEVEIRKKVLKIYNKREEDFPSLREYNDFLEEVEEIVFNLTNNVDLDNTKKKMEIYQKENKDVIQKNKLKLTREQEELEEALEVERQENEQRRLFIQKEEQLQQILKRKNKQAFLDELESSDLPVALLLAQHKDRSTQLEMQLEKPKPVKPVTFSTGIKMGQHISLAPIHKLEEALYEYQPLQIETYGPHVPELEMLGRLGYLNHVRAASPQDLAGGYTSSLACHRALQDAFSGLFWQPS
CDK12 (aa686-1082)/Cyclin K complex, sequence (Q9NYV4 686-1082): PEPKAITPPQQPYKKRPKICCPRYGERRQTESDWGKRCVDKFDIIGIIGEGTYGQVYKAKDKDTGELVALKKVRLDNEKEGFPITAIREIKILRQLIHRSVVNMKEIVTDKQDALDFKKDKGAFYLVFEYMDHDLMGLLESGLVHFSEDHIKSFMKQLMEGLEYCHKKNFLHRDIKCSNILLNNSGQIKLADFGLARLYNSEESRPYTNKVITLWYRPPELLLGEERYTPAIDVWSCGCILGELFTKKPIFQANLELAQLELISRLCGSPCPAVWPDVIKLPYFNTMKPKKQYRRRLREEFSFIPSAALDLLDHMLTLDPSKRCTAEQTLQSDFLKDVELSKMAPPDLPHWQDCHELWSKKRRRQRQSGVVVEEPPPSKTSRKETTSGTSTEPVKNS
CDK12 (aa686-1082)/Cyclin K complex, sequence (O75909 whole entry partner, the tested form may be a part): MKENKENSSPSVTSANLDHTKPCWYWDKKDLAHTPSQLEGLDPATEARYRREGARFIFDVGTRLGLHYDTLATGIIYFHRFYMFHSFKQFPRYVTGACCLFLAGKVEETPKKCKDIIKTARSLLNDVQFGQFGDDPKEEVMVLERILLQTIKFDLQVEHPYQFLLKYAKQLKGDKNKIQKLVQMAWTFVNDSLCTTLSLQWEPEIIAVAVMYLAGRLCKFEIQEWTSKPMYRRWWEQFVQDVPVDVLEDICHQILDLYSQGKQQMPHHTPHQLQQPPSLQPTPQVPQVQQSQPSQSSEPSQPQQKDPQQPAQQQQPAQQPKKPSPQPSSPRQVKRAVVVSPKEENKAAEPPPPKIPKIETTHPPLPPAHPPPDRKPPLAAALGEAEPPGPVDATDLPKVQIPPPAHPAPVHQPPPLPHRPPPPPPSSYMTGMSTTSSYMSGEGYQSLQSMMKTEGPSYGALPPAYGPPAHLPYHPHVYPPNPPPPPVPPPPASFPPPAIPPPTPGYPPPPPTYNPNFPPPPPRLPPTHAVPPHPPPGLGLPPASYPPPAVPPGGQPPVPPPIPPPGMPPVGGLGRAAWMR
CDK9/Cyclin T1 complex, sequence (P50750 whole entry): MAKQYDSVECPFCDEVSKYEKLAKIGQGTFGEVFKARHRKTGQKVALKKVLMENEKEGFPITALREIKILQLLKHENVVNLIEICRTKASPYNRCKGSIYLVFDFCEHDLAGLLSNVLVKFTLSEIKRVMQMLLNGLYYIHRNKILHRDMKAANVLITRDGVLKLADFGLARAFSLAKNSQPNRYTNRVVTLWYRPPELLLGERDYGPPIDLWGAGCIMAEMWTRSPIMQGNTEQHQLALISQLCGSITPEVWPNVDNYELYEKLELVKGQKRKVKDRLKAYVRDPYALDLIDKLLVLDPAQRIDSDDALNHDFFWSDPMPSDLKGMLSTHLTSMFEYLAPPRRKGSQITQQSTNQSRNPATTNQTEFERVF
CDK9/Cyclin T1 complex, sequence (O60563 whole entry partner): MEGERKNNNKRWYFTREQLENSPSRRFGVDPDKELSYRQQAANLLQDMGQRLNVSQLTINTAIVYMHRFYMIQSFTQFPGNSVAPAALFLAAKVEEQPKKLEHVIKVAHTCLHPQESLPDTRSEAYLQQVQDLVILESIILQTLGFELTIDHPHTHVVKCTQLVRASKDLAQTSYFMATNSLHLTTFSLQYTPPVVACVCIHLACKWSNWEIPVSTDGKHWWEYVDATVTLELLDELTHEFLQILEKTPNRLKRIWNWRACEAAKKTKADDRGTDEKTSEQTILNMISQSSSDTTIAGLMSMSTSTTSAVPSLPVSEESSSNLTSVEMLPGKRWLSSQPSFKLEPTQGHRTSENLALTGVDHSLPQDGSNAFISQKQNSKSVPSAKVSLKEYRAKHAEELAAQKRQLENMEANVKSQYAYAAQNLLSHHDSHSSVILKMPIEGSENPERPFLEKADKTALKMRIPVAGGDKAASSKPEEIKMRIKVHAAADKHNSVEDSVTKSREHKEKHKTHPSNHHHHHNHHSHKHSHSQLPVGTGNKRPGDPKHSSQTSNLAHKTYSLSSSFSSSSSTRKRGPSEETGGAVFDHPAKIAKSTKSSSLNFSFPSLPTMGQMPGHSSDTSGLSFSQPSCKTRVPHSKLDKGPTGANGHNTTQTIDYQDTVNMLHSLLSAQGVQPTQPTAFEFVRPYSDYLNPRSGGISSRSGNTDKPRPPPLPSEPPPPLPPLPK

Turning to `N#Cc1ccc2c(-c3nc(N[C@@H]4C[C@@H]5CCC4N5)ncc3C(F)(F)F)c[nH]c2c1` (racemic) [Compound 106, 3-(2-[[(+/−)-exo-7-azabicyclo[2.2.1]heptan-2-yl]amino]-5-(trifluoromethyl)pyrimidin-4-yl)-1H-indole-6-carbonitrile], the IC50 in test [1] was 0.1 to 0.5 µM; in test [2] (Homo sapiens), 0.1 to 0.5 µM; in test [3], over 0.5 µM; in test [4], 0.1 to 0.5 µM; in test [5], over 0.5 µM; in test [6] it was over 0.5 µM. The IC50 was under 0.03 µM in test [7] and 0.1 to 0.5 µM in test [8] (Homo sapiens).
Regarding `N#Cc1ccc2c(-c3nc(N[C@@H]4CNC[C@@H]4O)ncc3C(F)(F)F)c[nH]c2c1` (relative stereo) [Compound 107], the IC50 was over 2 µM in test [1]; over 2 µM in test [2] (Homo sapiens); over 0.5 µM in test [3]; over 2 µM in test [4]; over 0.5 µM in test [5]; over 0.5 µM in test [6]. Moreover, the IC50 in test [7] is 0.1 to 0.5 µM; in test [8] (Homo sapiens), over 2 µM.
Take `N#Cc1ccc2c(-c3nc(N[C@@H]4CNC[C@H]4F)ncc3C(F)(F)F)c[nH]c2c1` (relative stereo) [Compound 110]: the IC50 in test [1] is over 2 µM; in test [2] (Homo sapiens) it was over 2 µM; in test [3], over 0.5 µM; in test [4] it was 0.5 to 2 µM; in test [5], over 0.5 µM; in test [6] it was over 0.5 µM. Further, the values for the IC50 in test [7] and in test [8] (Homo sapiens) were 0.1 to 0.5 µM and 0.5 to 2 µM, respectively.
For `CCO[C@@H]1CNC[C@H]1Nc1ncc(C(F)(F)F)c(-c2c[nH]c3cc(C#N)ccc23)n1` (relative stereo) [Compound 111], the IC50 was over 2 µM in test [1]; over 2 µM in test [2] (Homo sapiens); over 0.5 µM in test [3]; over 2 µM in test [4]; over 0.5 µM in test [5]; over 0.5 µM in test [6]. For the same compound, the IC50 is 0.1 to 0.5 µM in test [7] and over 2 µM in test [8] (Homo sapiens).
Turning to `N#Cc1ccc2c(-c3nc(N[C@H]4CNC[C@@H]4c4ccc(Cl)cc4)ncc3C(F)(F)F)c[nH]c2c1` (relative stereo) [Compound 113], the IC50 is over 2 µM in test [1]; over 2 µM in test [2] (Homo sapiens); over 0.5 µM in test [3]; 0.5 to 2 µM in test [4]; over 0.5 µM in test [5]; over 0.5 µM in test [6]. The IC50 was over 0.5 µM in test [7] and over 2 µM in test [8] (Homo sapiens).
For the compound `Cc1noc(C)c1-c1ccc2c(-c3nc(NC4CC[C@@H]4N4CCCC4)ncc3C(F)(F)F)c[nH]c2n1` (stereo in doubt) [Compound 149, 4-[6-(3,5-dimethylisoxazol-4-yl)-1H-pyrrolo[2,3-b]pyridin-3-yl]-N-(2-pyrrolidin-1-ylcyclobutyl)-5-(trifluoromethyl) pyrimidin-2-amine], the IC50 in test [1] was over 2 µM; in test [2] (Homo sapiens) it was under 0.1 µM; in test [3], over 0.5 µM; in test [4] it was under 0.1 µM; in test [5], over 0.5 µM; in test [6] it was over 0.5 µM. Moreover, the values for the IC50 in test [7] and in test [8] (Homo sapiens) were under 0.03 µM and under 0.1 µM, respectively.
As for `COCCNC1CCC[C@@H]1Nc1ncc(C(F)(F)F)c(-c2c[nH]c3nc(-c4c(C)noc4C)ccc23)n1` (stereo in doubt) [Compound 152, (1S, 2R)—N1-[4-[6-(3,5-dimethylisoxazol-4-yl)-1H-pyrrolo [2,3-b]pyridin-3-yl]-5-(trifluoromethyl)pyrimidin-2-yl]-N2-(2-methoxyethyl)cyclopentane-1,2-diamine], the IC50 in test [1] was 0.5 to 2 µM; in test [2] (Homo sapiens), 0.1 to 0.5 µM; in test [3], over 0.5 µM; in test [4], 0.1 to 0.5 µM; in test [5], over 0.5 µM; in test [6], over 0.5 µM. Also, the values for the IC50 in test [7] and in test [8] (Homo sapiens) were under 0.03 µM and 0.1 to 0.5 µM, respectively.
As for `N#Cc1ccc2c(-c3nc(N[C@H]4CCCC[C@@H]4N)ncc3C(F)(F)F)c[nH]c2c1` [Compound 100], the IC50 in test [1] was over 2 µM; in test [2] (Homo sapiens), 0.5 to 2 µM; in test [3], over 0.5 µM; in test [4], over 2 µM; in test [5], over 0.5 µM; in test [6] it was over 0.5 µM. The IC50 in test [7] is over 0.5 µM; in test [8] (Homo sapiens) it was over 2 µM.
In the case of `N#Cc1ccc2c(-c3nc(N[C@H]4CCC[C@@H]4N)ncc3C(F)(F)F)c[nH]c2c1` [Compound 101], the IC50 in test [1] is 0.1 to 0.5 µM; in test [2] (Homo sapiens), 0.1 to 0.5 µM; in test [3], over 0.5 µM; in test [4] it was 0.1 to 0.5 µM; in test [5] it was over 0.5 µM; in test [6], over 0.5 µM. Moreover, the IC50 in test [7] was under 0.03 µM; in test [8] (Homo sapiens), 0.1 to 0.5 µM.
For the compound `N#Cc1ccc2c(-c3nc(NC[C@@H]4COCCN4)ncc3C(F)(F)F)c[nH]c2c1` [Compound 102], the IC50 in test [1] is over 2 µM; in test [2] (Homo sapiens), over 2 µM; in test [3] it was over 0.5 µM; in test [4], over 2 µM; in test [5], over 0.5 µM; in test [6], over 0.5 µM. For the same compound, the IC50 was over 0.5 µM in test [7] and over 2 µM in test [8] (Homo sapiens).
As for `N#Cc1ccc2c(-c3nc(N[C@H]4CC[C@@H]4N)ncc3C(F)(F)F)c[nH]c2c1` [Compound 103], the IC50 was 0.1 to 0.5 µM in test [1]; 0.1 to 0.5 µM in test [2] (Homo sapiens); over 0.5 µM in test [3]; 0.1 to 0.5 µM in test [4]; over 0.5 µM in test [5]; over 0.5 µM in test [6]. The IC50 was under 0.03 µM in test [7] and 0.1 to 0.5 µM in test [8] (Homo sapiens).
With `COCCN[C@@H]1CC[C@H]1Nc1ncc(C(F)(F)F)c(-c2c[nH]c3cc(C#N)ccc23)n1` [Compound 134], the IC50 in test [3], in test [5], in test [6] and in test [7] was over 0.5 µM in each case.
As for `N#Cc1ccc2c(-c3nc(N[C@@H]4CC[C@H]4N4CCCC4)ncc3C(F)(F)F)c[nH]c2c1` [Compound 136, 3-[2-[[(1R,2R)-2-pyrrolidin-1-ylcyclobutyl]-amino]-5-(trifluoromethyl)pyrimidin-4-yl]-1H-indole-6-carbonitrile], the IC50 is over 0.5 µM in test [3], over 0.5 µM in test [5], over 0.5 µM in test [6] and 0.1 to 0.5 µM in test [7].
As for `Cc1noc(C)c1-c1ccc2c(-c3nc(N[C@@H]4C[C@H]5CC[C@@H]4N5)ncc3C(F)(F)F)c[nH]c2c1` [Compound 138, (1R,2R,4S)—N-[4-[6-(3,5-dimethylisoxazol-4-yl)-1H-indol-3-yl]-5-(trifluoromethyl)pyrimidin-2-yl]-7-azabicyclo-[2.2.1]-heptan-3-amine], the IC50 in test [2] was 0.1 to 0.5 µM; in test [3] (read-out: CDK 12 calculated IC50, ATP 2 mM, 27° C., 3 hr incubation, 2 mM MgCl2), over 0.5 µM; in test [5] (read-out: CDK 9 calculated IC50, ATP 2 mM, 27° C., 15 min incubation, 10 mM MgCl2), over 0.5 µM; in test [6] (read-out: CDK 2 calculated IC50, ATP 2 mM, 27° C., 35 min incubation, 2 mM MgCl2), over 0.5 µM; in test [7] (read-out: CDK 7 calculated IC50, ATP 2 mM, 27° C., 35 min incubation, 6 mM MgCl2), 0.03 to 0.1 µM; in test [8] it was 0.1 to 0.5 µM.
Consider `COC1CCN([C@H]2CCC[C@@H]2Nc2ncc(C(F)(F)F)c(-c3c[nH]c4nc(-c5c(C)noc5C)ccc34)n2)C1` (stereo partly shown) [Compound 153], for which the IC50 is over 2 µM in test [1], 0.5 to 2 µM in test [2] (Homo sapiens), 0.1 to 0.5 µM in test [4] and 0.1 to 0.5 µM in test [8] (Homo sapiens).
For the compound `CP(C)(=O)c1c(C(N)=O)ccc2c(-c3nc(N[C@H]4CCC[C@@H]4N)ncc3C(F)(F)F)c[nH]c12` [Compound 162, 3-[2-[[(1S,2S)-2-aminocyclopentyl]amino]-5(trifluoromethyl)pyrimidin-4-yl]-7-dimethylphosphoryl-1H-indole-6-carboxamide], the IC50 in test [5] was over 0.5 µM; in test [6], over 0.5 µM; in test [7], under 0.03 µM.
